In ChEMBL document CHEMBL1667805, “Synthesis of new C5-(1-substituted-1,2,3-triazol-4 or 5-yl)-2'-deoxyuridines and their antiviral evaluation” (Eur J Med Chem, 2011):
Calls of active or inactive are those of the source. No cut-off for these calls is given here.

Key:
[1] = test system: Punta Toro virus; assay type: functional, organism-based; settings: Vero
[2] = test system: Human alphaherpesvirus 1; test: microbe, parasite or virus in culture; settings: Human alphaherpesvirus 1, KOS, HEL
[3] = test system: Human immunodeficiency virus 1; test: Antiviral activity against HIV1 3B infected in human […] cells assessed as virus-induced CEM giant cell formation after 4 days; assay type: functional, organism-based
[4] = test system: Human alphaherpesvirus 2; test: microbe, parasite or virus in culture; settings: Human alphaherpesvirus 2, strain G, HEL
[5] = test system: Influenza A virus; assay type: functional, organism-based; settings: H1N1, MDCK
[6] = test system: L1210; test: cells; settings: Mus musculus, L1210, 48 h
[7] = test system: Human respirovirus 3; assay type: functional, organism-based; settings: Vero
[8] = test system: Human immunodeficiency virus 2; test: Antiviral activity against HIV2 ROD infected in human […] cells assessed as virus-induced CEM giant cell formation after 4 days; assay type: functional, organism-based; settings: ISOLATE ROD
[9] = test system: Human alphaherpesvirus 3; test: microbe, parasite or virus in culture; settings: Human alphaherpesvirus 3, 07-1, HEL
[10] = test system: Mammalian orthoreovirus 1; assay type: functional, organism-based; settings: Vero
[11] = test system: Influenza A virus; assay type: functional, organism-based; settings: H3N2, MDCK
[12] = test system: Human alphaherpesvirus 3; test: microbe, parasite or virus in culture; settings: Human alphaherpesvirus 3, strain Oka vaccine, HEL
[13] = test system: Vaccinia virus; test: microbe, parasite or virus in culture; settings: Orthopoxvirus vaccinia, HEL
[14] = test system: Human betaherpesvirus 5; test: microbe, parasite or virus in culture; settings: Human betaherpesvirus 5, Davis, HEL
[15] = test system: Human alphaherpesvirus 1; test: microbe, parasite or virus in culture; settings: Human alphaherpesvirus 1, KOS, HEL; remark: listed apart in the source
[16] = test system: Vesicular stomatitis virus; assay type: functional, organism-based; settings: HeLa
[17] = test system: Influenza B virus; assay type: functional, organism-based; settings: MDCK
[18] = test system: CCRF-CEM; test: cells; settings: Homo sapiens, 72 h
[19] = test system: Coxsackievirus B4; assay type: functional, organism-based; settings: HeLa
[20] = test system: HeLa; test: cells; settings: Homo sapiens, 96 h
[21] = in vitro; settings: human, HEL cells
[22] = test system: Human betaherpesvirus 5; test: microbe, parasite or virus in culture; settings: Human betaherpesvirus 5, AD169, HEL
[23] = test system: Sindbis virus; assay type: functional, organism-based; settings: Vero
[24] = test system: Vesicular stomatitis virus; assay type: functional, organism-based; settings: MDCK

Row | SMILES | inhibition [1] | EC50 [2] | inhibition [3] | EC50 [4] | inhibition [5] | IC50 [6] | inhibition [7] | inhibition [8] | EC50 [9] | inhibition [10] | inhibition [11] | EC50 [12] | EC50 [13] | EC50 [14] | EC50 [15] | inhibition [16] | inhibition [17] | IC50 [18] | inhibition [19] | IC50 [20] | other results
1 | O=c1[nH]c(=O)n([C@H]2C[C@H](O)[C@@H](CO)O2)cc1-c1cn(-c2ccc(Cl)cc2)nn1 | inactive | > 240 µM | inactive | > 240 µM | inactive | 14.8 µM | inactive | inactive | 48 µM | inactive | inactive | 41 µM | > 240 µM | > 131 µM | > 240 µM | inactive | inactive | 13 µM | inactive | 4 µM | CC50 at 72 h [21]: 7.4 µM; MCC at 72 h [21]: > 240 µM; EC50 [22]: > 240 µM; inhibition [23]: inactive; inhibition [24]: inactive
2 | O=c1[nH]c(=O)n([C@H]2C[C@H](O)[C@@H](CO)O2)cc1-c1cn(-c2ccc([N+](=O)[O-])cc2)nn1 | inactive | > 50 µM | inactive | > 50 µM | inactive | > 100 µM | inactive | inactive | > 50 µM | inactive | inactive | > 50 µM | > 50 µM | > 50 µM | > 50 µM | inactive | inactive | > 100 µM | inactive | > 100 µM | CC50 at 72 h [21]: 136 µM; MCC at 72 h [21]: 240 µM; EC50 [22]: > 50 µM; inhibition [23]: inactive; inhibition [24]: inactive
3 | CC(C)(C)c1ccc(-n2cc(-c3cn([C@H]4C[C@H](O)[C@@H](CO)O4)c(=O)[nH]c3=O)nn2)cc1 | inactive | > 50 µM | inactive | > 50 µM | inactive | 15 µM | inactive | inactive | 35 µM | inactive | inactive | 7.7 µM | 37 µM | > 50 µM | > 50 µM | inactive | inactive | 11 µM | inactive | 9 µM | CC50 at 72 h [21]: 12.4 µM; MCC at 72 h [21]: 230 µM; EC50 [22]: > 50 µM; inhibition [23]: inactive; inhibition [24]: inactive
4 | O=c1[nH]c(=O)n([C@H]2C[C@H](O)[C@@H](CO)O2)cc1-c1cn(-c2ccc(Br)cc2)nn1 | inactive | 132 µM | inactive | ≥ 100 µM | inactive | 4.6 µM | inactive | inactive | 14 µM | inactive | inactive | 2.6 µM | 31 µM | 25 µM | 132 µM | inactive | inactive | 1.8 µM | inactive | 1.37 µM | CC50 at 72 h [21]: 1 µM; MCC at 72 h [21]: ≥ 44 µM; EC50 [22]: 45 µM; inhibition [23]: inactive; inhibition [24]: inactive
5 | CC(C)c1ccc(-n2cc(-c3cn([C@H]4C[C@H](O)[C@@H](CO)O4)c(=O)[nH]c3=O)nn2)cc1 | inactive | > 10 µM | inactive | > 10 µM | inactive | 29 µM | inactive | inactive | 97 µM | inactive | inactive | 20 µM | > 10 µM | 185 µM | > 10 µM | inactive | inactive | 22 µM | inactive | 6.2 µM | CC50 at 72 h [21]: 7.4 µM; MCC at 72 h [21]: > 240 µM; EC50 [22]: 240 µM; inhibition [23]: inactive; inhibition [24]: inactive
6 | O=c1[nH]c(=O)n([C@H]2C[C@H](O)[C@@H](CO)O2)cc1-c1cn(-c2ccc(Oc3ccccc3)cc2)nn1 | inactive | 8.6 µM | inactive | ≥ 43 µM | inactive | 0.5 µM | inactive | inactive | 5.7 µM | inactive | inactive | 1.4 µM | 4.3 µM | 16.4 µM | 31 µM | inactive | inactive | 0.8 µM | inactive | 0.28 µM | CC50 at 72 h [21]: 0.45 µM; MCC at 72 h [21]: 130 µM; EC50 [22]: 19.4 µM; inhibition [23]: inactive; inhibition [24]: inactive
7 | CCCCc1ccc(-n2cc(-c3cn([C@H]4C[C@H](O)[C@@H](CO)O4)c(=O)[nH]c3=O)nn2)cc1 | inactive | > 50 µM | inactive | > 50 µM | inactive | 15 µM | inactive | inactive | > 50 µM | inactive | inactive | > 50 µM | > 50 µM | > 50 µM | > 50 µM | inactive | inactive | 60 µM | inactive | 23 µM | CC50 at 72 h [21]: 147 µM; MCC at 72 h [21]: 230 µM; EC50 [22]: > 50 µM; inhibition [23]: inactive; inhibition [24]: inactive
8 | O=c1[nH]c(=O)n([C@H]2C[C@H](O)[C@@H](CO)O2)cc1-c1cn(-c2ccccc2)nn1 | inactive | > 50 µM | inactive | > 50 µM | inactive | 204 µM | inactive | inactive | > 270 µM | inactive | inactive | > 270 µM | > 50 µM | > 270 µM | > 50 µM | inactive | inactive | 75 µM | inactive | 56 µM | CC50 at 72 h [21]: 270 µM; MCC at 72 h [21]: 270 µM; EC50 [22]: > 270 µM; inhibition [23]: inactive; inhibition [24]: inactive
9 | CSc1ccc(-n2cc(-c3cn([C@H]4C[C@H](O)[C@@H](CO)O4)c(=O)[nH]c3=O)nn2)cc1 | inactive | > 50 µM | inactive | > 50 µM | inactive | 62 µM | inactive | inactive | > 50 µM | inactive | inactive | 27 µM | > 50 µM | > 50 µM | > 50 µM | inactive | inactive | 50 µM | inactive | 23 µM | CC50 at 72 h [21]: 27 µM; MCC at 72 h [21]: > 230 µM; EC50 [22]: > 50 µM; inhibition [23]: inactive; inhibition [24]: inactive
10 | O=c1[nH]c(=O)n([C@H]2C[C@H](O)[C@@H](CO)O2)cc1-c1cn(-c2ccc(OC(F)(F)F)cc2)nn1 | inactive | > 50 µM | inactive | > 50 µM | inactive | 50 µM | inactive | inactive | > 50 µM | inactive | inactive | > 50 µM | > 50 µM | > 220 µM | > 50 µM | inactive | inactive | 35 µM | inactive | 37 µM | CC50 at 72 h [21]: 47 µM; MCC at 72 h [21]: > 220 µM; EC50 [22]: > 220 µM; inhibition [23]: inactive; inhibition [24]: inactive
